Data published in patent US9376425B2, “Heterocyclic compounds as MDM2 inhibitors for the treatment of cancer” (AMGEN INC., priority 2011, dated 2016).

Biological target: T1, human MDM2 (GST-hMDM2 aa 1-188), interaction with biotinylated-p53 (aa 1-83) (Homo sapiens, UniProt Q00987)
T1 construct: Amino acid residues 1-188 of human MDM2 were expressed; made in house; host or cells: Escherichia coli
Assay: Homogenous Time-Resolved Fluorescence Assay (HTRF1 assay), inhibition of HDM2-p53 interaction
Type: binding
Settings: 2.5 nM GST-hMDM2, 5 nM biotinylated-p53, 200 mM KF
Method: Homogenous Time-Resolved Fluorescence Assay (HTRF1 Assay)
Residues 1-83 of human p53 were expressed as an amino-terminal AviTag™-TrxA-6xHis fusion protein (biotinylated p53) in E. coli. Each protein was purified from cell paste by affinity chromatography.
Specifically, 10 uL of GST-hMDM2 was incubated with 10 ul of diluted compound (various concentrations, serially diluted) in 10% DMSO for 20 minutes at room temperature. 20 uL of biotinylated-p53 was added to the GST-hMDM2+ compound mixture, and then incubated at room temperature for 60 min. 10 uL of detection buffer consisting of SA-XLent, anti-GST cryptate antibody and KF was added to GST-hMDM2, biotinylated-p53 and compound reaction and left at room temperature to reach equilibrium for >4 hrs. The final concentration of DMSO in the reaction was 2%. Time-resolved fluorescence readings were measured on a microplate multilabel reader. Percentage of inhibition was calculated relative to nutlin-3.

T1 sequence (Q00987 1-188): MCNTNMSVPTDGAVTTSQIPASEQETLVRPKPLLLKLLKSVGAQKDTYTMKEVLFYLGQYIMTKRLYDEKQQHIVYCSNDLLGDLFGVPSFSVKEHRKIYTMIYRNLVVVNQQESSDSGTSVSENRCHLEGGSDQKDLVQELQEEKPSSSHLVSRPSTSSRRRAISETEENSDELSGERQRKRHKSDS

| SMILES | IC50 [nM] |
| --- | --- |
| O=C(O)CC1O[C@H](c2cccc(OC(F)(F)F)c2)[C@@H](c2ccc(Cl)cc2)N(CC2CC2)C1=O (single isomer, unassigned) [Example 95] | 33500 |
| O=C(O)CC1O[C@H](c2cc(F)cc(F)c2)[C@@H](c2ccc(Cl)cc2)N(CC2CC2)C1=O (single isomer, unassigned) [Example 96] | 1100 |
| N#Cc1cc(F)cc([C@H]2OC(CC(=O)O)C(=O)N(CC3CC3)[C@@H]2c2ccc(Cl)cc2)c1 (single isomer, unassigned) [Example 98] | 1800 |
| N#Cc1cc(F)cc([C@H]2OC(CC(=O)O)C(=O)N(CC3CC3)[C@@H]2c2ccc(Cl)cc2)c1 (single isomer, unassigned) [Example 99] | 1100 |
| O=C(O)CC1O[C@H](c2cc(Cl)ccc2F)[C@@H](c2ccc(Cl)cc2)N(CC2CC2)C1=O (single isomer, unassigned) [Example 100] | 1100 |
| Cc1cccc([C@H]2OC(CC(=O)O)C(=O)N(CC3CC3)[C@@H]2c2ccc(Cl)cc2)c1 (single isomer, unassigned) [Example 102] | 6500 |
| Cc1cccc([C@H]2OC(CC(=O)O)C(=O)N(CC3CC3)[C@@H]2c2ccc(Cl)cc2)c1 (single isomer, unassigned) [Example 103] | 3400 |
| O=C(O)C[C@H]1O[C@H](c2cc(Cl)cc(-c3cn[nH]c3)c2)[C@@H](c2ccc(Cl)cc2)N(CC2CC2)C1=O (single isomer, unassigned) [Example 106] | 5200 |
| O=C(O)C[C@@H]1O[C@H](c2cc(Cl)cc(-c3cn[nH]c3)c2)[C@@H](c2ccc(Cl)cc2)N(CC2CC2)C1=O (single isomer, unassigned) [Example 107] | 3800 |
| O=C(O)C[C@H]1O[C@H](c2cc(Cl)cc(-c3cncnc3)c2)[C@@H](c2ccc(Cl)cc2)N(CC2CC2)C1=O (single isomer, unassigned) [Example 108] | 4300 |
| O=C(O)C[C@@H]1O[C@H](c2cc(Cl)cc(-c3cncnc3)c2)[C@@H](c2ccc(Cl)cc2)N(CC2CC2)C1=O (single isomer, unassigned) [Example 109] | 2800 |
| CS(=O)(=O)c1cc(Cl)cc([C@H]2O[C@H](CC(=O)O)C(=O)N(CC3CC3)[C@@H]2c2ccc(Cl)cc2)c1 (single isomer, unassigned) [Example 110] | 3700 |
| CS(=O)(=O)c1cc(Cl)cc([C@H]2O[C@@H](CC(=O)O)C(=O)N(CC3CC3)[C@@H]2c2ccc(Cl)cc2)c1 (single isomer, unassigned) [Example 111] | 2300 |
| O=C(O)/C=C1\O[C@H](c2cccc(Cl)c2)[C@@H](c2ccc(Cl)cc2)N(CC2CC2)C1=O (single isomer, unassigned; isomer 1) [Example 51, (Z)-2-((5R,6R)-6-(3-Chlorophenyl)-5-(4-chlorophenyl)-4-(cyclopropylmethyl)-3-oxomorpholin-2-ylidene)acetic acid or (E)-2-((5R,6R)-6-(3-Chlorophenyl)-5-(4-chlorophenyl)-4-(cyclopropylmethyl)-3-oxomorpholin-2-ylidene)acetic acid (Isomer 1)] | 600 |
| O=C(O)/C=C1/O[C@H](c2cccc(Cl)c2)[C@@H](c2ccc(Cl)cc2)N(CC2CC2)C1=O (single isomer, unassigned; isomer 2) [Example 52, (E)-2-((5R,6R)-6-(3-Chlorophenyl)-5-(4-chlorophenyl)-4-(cyclopropylmethyl)-3-oxomorpholin-2-ylidene)acetic acid or (Z)-2-((5R,6R)-6-(3-Chlorophenyl)-5-(4-chlorophenyl)-4-(cyclopropylmethyl)-3-oxomorpholin-2-ylidene)acetic acid (Isomer 2)] | 19700 |
| O=C(O)C[C@@H]1O[C@H](c2cccc(Cl)c2)[C@@H](c2ccc(Cl)cc2)N(C2CCC2)C1=O [Example 12, 2-((2S,5R,6R)-6-(3-Chlorophenyl)-5-(4-chlorophenyl)-4-cyclobutyl-3-oxomorpholin-2-yl)acetic acid] | 900 |
| O=C(O)C[C@H]1O[C@H](c2cccc(Cl)c2)[C@@H](c2ccc(Cl)cc2)N(C2CCC2)C1=O [Example 13, 2-((2R,5R,6R)-6-(3-Chlorophenyl)-5-(4-chlorophenyl)-4-cyclobutyl-3-oxomorpholin-2-yl)acetic acid] | 700 |
| C[C@H](c1ccccc1)N1C(=O)[C@@H](CC(=O)O)O[C@H](c2cccc(Cl)c2)[C@H]1c1ccc(Cl)cc1 [Example 24, 2-((2R,5R,6R)-6-(3-Chlorophenyl)-5-(4-chlorophenyl)-3-oxo-4-((R)-1-phenylethyl)morpholin-2-yl)acetic acid] | 1000 |
| C[C@H](c1ccccc1)N1C(=O)[C@H](CC(=O)O)O[C@H](c2cccc(Cl)c2)[C@H]1c1ccc(Cl)cc1 [Example 25, 2-((2S,5R,6R)-6-(3-Chlorophenyl)-5-(4-chlorophenyl)-3-oxo-4-((R)-1-phenylethyl)morpholin-2-yl)acetic acid] | 600 |
| C[C@@H](c1ccccc1)N1C(=O)[C@@H](CC(=O)O)O[C@H](c2cccc(Cl)c2)[C@H]1c1ccc(Cl)cc1 [Example 26, 2-((2R,5R,6R)-6-(3-Chlorophenyl)-5-(4-chlorophenyl)-3-oxo-4-((S)-1-phenylethyl)morpholin-2-yl)acetic acid] | 1500 |
| C[C@@H](c1ccccc1)N1C(=O)[C@H](CC(=O)O)O[C@H](c2cccc(Cl)c2)[C@H]1c1ccc(Cl)cc1 [Example 27, 2-((2S,5R,6R)-6-(3-Chlorophenyl)-5-(4-chlorophenyl)-3-oxo-4-((S)-1-phenylethyl)morpholin-2-yl)acetic acid] | 600 |

Further molecules by falling IC50, results first:

| IC50 [nM] | SMILES |
| --- | --- |
| 600 | O=C(O)CC1O[C@H](c2ccc(F)c(Cl)c2)[C@@H](c2ccc(Cl)cc2)N(CC2CC2)C1=O (single isomer, unassigned) [Example 94] |
| 600 | O=C(O)CC1O[C@H](c2cc(Cl)ccc2F)[C@@H](c2ccc(Cl)cc2)N(CC2CC2)C1=O (single isomer, unassigned) [Example 101] |
| 600 | O=C(O)C[C@@H]1O[C@H](c2cccc(Cl)c2)[C@@H](c2ccc(Cl)cc2)N(CCC(F)(F)F)C1=O [Example 11, 2-((2S,5R,6R)-6-(3-Chlorophenyl)-5-(4-chlorophenyl)-3-oxo-4-(3,3,3-trifluoropropyl)morpholin-2-yl)acetic acid] |
| 500 | O=C(O)CC1O[C@H](c2cc(F)cc(F)c2)[C@@H](c2ccc(Cl)cc2)N(CC2CC2)C1=O (single isomer, unassigned) [Example 97] |
| 500 | O=C(O)CC1O[C@H](c2cc(Cl)cc(Br)c2)[C@@H](c2ccc(Cl)cc2)N(CC2CC2)C1=O (single isomer, unassigned) [Example 104] |
| 500 | C[C@@H](C1CCC1)N1C(=O)[C@@H](CC(=O)O)O[C@H](c2cccc(Cl)c2)[C@H]1c1ccc(Cl)cc1 [Example 22, 2-((2R,5R,6R)-6-(3-Chlorophenyl)-5-(4-chlorophenyl)-4-((S)-1-cyclobutylethyl)-3-oxomorpholin-2-yl)acetic acid] |
| 300 | O=C(O)CC1O[C@H](c2cc(Cl)cc(Cl)c2)[C@@H](c2ccc(Cl)cc2)N(CC2CC2)C1=O (single isomer, unassigned) [Example 93] |
| 300 | O=C(O)CC1O[C@H](c2cc(Cl)cc(Br)c2)[C@@H](c2ccc(Cl)cc2)N(CC2CC2)C1=O (single isomer, unassigned) [Example 105] |
| 300 | O=C(O)C[C@@H]1O[C@H](c2cccc(Cl)c2)[C@@H](c2ccc(Cl)cc2)N(C2CCCC2)C1=O [Example 14, 2-((2S,5R,6R)-6-(3-Chlorophenyl)-5-(4-chlorophenyl)-4-cyclopentyl-3-oxomorpholin-2-yl)acetic acid] |
| 300 | O=C(O)C[C@H]1O[C@H](c2cccc(Cl)c2)[C@@H](c2ccc(Cl)cc2)N(C2CCCC2)C1=O [Example 15, 2-((2R,5R,6R)-6-(3-chlorophenyl)-5-(4-chlorophenyl)-4-cyclopentyl-3-oxomorpholin-2-yl)acetic acid] |
| 300 | O=C(O)C[C@@H]1O[C@H](c2cccc(Cl)c2)[C@@H](c2ccc(Cl)cc2)N(C2CCCCC2)C1=O [Example 16, 2-((2S,5R,6R)-6-(3-Chlorophenyl)-5-(4-chlorophenyl)-4-cyclohexyl-3-oxomorpholin-2-yl)acetic acid] |
| 300 | C[C@H](C1CCC1)N1C(=O)[C@@H](CC(=O)O)O[C@H](c2cccc(Cl)c2)[C@H]1c1ccc(Cl)cc1 [Example 20, 2-((2R,5R,6R)-6-(3-Chlorophenyl)-5-(4-chlorophenyl)-4-((R)-1-cyclobutylethyl)-3-oxomorpholin-2-yl)acetic acid] |
| 300 | C[C@H](C1CCC1)N1C(=O)[C@H](CC(=O)O)O[C@H](c2cccc(Cl)c2)[C@H]1c1ccc(Cl)cc1 [Example 21, 2-((2S,5R,6R)-6-(3-Chlorophenyl)-5-(4-chlorophenyl)-4-((R)-1-cyclobutylethyl)-3-oxomorpholin-2-yl)acetic acid] |
| 300 | C[C@@H](C1CCC1)N1C(=O)[C@H](CC(=O)O)O[C@H](c2cccc(Cl)c2)[C@H]1c1ccc(Cl)cc1 [Example 23, 2-((2S,5R,6R)-6-(3-Chlorophenyl)-5-(4-chlorophenyl)-4-((S)-1-cyclobutylethyl)-3-oxomorpholin-2-yl)acetic acid] |
| 200 | O=C(O)C[C@H]1O[C@H](c2cccc(Cl)c2)[C@@H](c2ccc(Cl)cc2)N(C2CCCCC2)C1=O [Example 17, 2-((2R,5R,6R)-6-(3-Chlorophenyl)-5-(4-chlorophenyl)-4-cyclohexyl-3-oxomorpholin-2-yl)acetic acid] |
